Here are results for four molecules from article PMC5004293, “Characterization of FRM-36143 as a new γ-secretase modulator for the potential treatment of familial Alzheimer’s disease” (Alzheimer's Research & Therapy, 2016).

The target of one data set is T1, Aβ42 (Homo sapiens, UniProt P05067).
T1 construct: purchased AnaSpec
Nature of the data set: Aβ aggregation assay (thioflavin T). The conditions noted are these: 10 μM peptide, 25 °C, 18 h. On the procedure: Aβ peptides (AnaSpec, Fremont, CA, USA) were dissolved at a concentration of 1 mg/mL in hexafluoroisopropanol (HFIP). Peptides were then mixed at different molar ratios. HFIP was evaporated in a SpeedVac without heating for 15 min. Peptides and mixtures were kept on ice and reconstituted in 50 mM Tris–HCl, 1 mM EDTA. Peptides (final concentration: 10 μM) were added to thioflavin T (final concentration: 2.5 μM; AnaSpec) in a black 96-well plate. Aggregation was monitored on a SpectraMax M5 plate reader (Molecular Devices, Inc.) at a constant temperature of 25 °C using excitation/emission of 440 nm/480 nm. Readings were recorded in triplicate every 10 min for a period of 18 h.

On the set-up of data set [1]: method as in PMID 24085193. The conditions noted are these: animals; takes 12–14 weeks to appear; cited from earlier work.
The subject of data set [2] is DHCR24. The settings on record: cited from earlier work.
In data set [3] the target is T2, DHCR24 (Homo sapiens, UniProt Q15392).
T2 construct: endogenous in cells; host or cells: HepG2 cells
T2 sequence (Q15392 23-516): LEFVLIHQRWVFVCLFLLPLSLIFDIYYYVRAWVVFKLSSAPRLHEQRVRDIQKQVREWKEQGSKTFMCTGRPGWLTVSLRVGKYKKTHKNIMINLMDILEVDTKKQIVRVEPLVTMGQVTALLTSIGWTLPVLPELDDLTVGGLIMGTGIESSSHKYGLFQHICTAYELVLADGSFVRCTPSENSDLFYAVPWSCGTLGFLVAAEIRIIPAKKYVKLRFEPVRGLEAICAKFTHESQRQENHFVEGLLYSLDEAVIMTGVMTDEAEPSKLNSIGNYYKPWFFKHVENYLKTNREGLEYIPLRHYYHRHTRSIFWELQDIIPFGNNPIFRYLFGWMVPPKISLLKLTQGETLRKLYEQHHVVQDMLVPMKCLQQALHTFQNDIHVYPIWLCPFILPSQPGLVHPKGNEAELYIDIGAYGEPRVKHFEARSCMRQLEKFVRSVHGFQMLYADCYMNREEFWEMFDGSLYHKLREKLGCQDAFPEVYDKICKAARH
Briefly: Desmosterol assay in HepG2 cells. The format is cell-based. The method, then: HepG2 cells were grown in Eagle's minimal essential medium (EMEM) containing 10 % fetal bovine serum, penicillin (50 U/mL), and streptomycin (50 ug/mL) and plated at a density of 1 million cells/well in 6-well plates for the experiment. Four to five days after plating, the cells were washed with Hank’s balanced salt solution (HBSS), and compound treatment applied for 2 h in HBSS. At the end of the treatment, cells were collected, washed with PBS, and pelleted. Sterols were extracted from the cell pellet by adding 100 μL PBS and 3 mL ethylacetate (containing an internal standard of 1 mg/mL d-cholesterol). Tubes were vortexed for 20 min and centrifuged at 2000 × g for 20 min at room temperature. The organic phase was dried under a stream of nitrogen at 40 °C and the samples reconstituted in 65 % methanol. Liquid chromatography-tandem mass spectrometry (LC-MS/MS) analysis was performed using a Shimadzu 20-series UFLC (Shimadzu, Kyoto, Japan) and an API 5500 (Applied Biosystems, Foster City, CA, USA) with a Hypersil GOLD column (100X2.1 mM; Thermo Fisher).

For a further data set, the system named is Notch processing. Nature of the data set: Notch reporter assay (HeLa 6xCBF1-Luc, NotchΔE). The data set is classed as cell-based, human. The conditions noted are these: overnight. On the procedure: The wild-type CBF1 binding element was cloned in front of the SV40 promoter-driven luciferase reporter construct of pGL3pro (Promega, Madison, WI, USA) using the following oligonucleotides: • CBF1 Fw (5’→3’): […] • CBF1 Rv (5’→3’): […]
Oligonucleotides were phosphorylated using T4 polynucleotide kinase and annealed (by heating to 90 °C and cooling to room temperature in a buffer containing 0.1 M NaCl). Plasmid pGL3pro was cleaved with BglII and dephosphorylated using alkaline phosphatase. The oligonucleotide pair was then ligated using T4 ligase with the linearized plasmid DNA. A clone containing 6 copies of the CBF1 element in front of the SV40 promoter was chosen. The 6xCBF1-RE/SV40 promoter was excised from pGL3 using XhoI and HindIII, and the fragment transferred to the pGL4.17 [luc2/Neo] vector (Promega) was opened with the same restriction enzymes.
The full length human Notch in plasmid pCMV6-XL5 (Origene, Rockville, MD, USA) was used to amplify a truncated form of Notch (NotchΔE) containing the 20-amino-acid (a.a.) signal sequence followed by 5 a.a. […]
HeLa cells stably transfected with the 6xCBF1-Luc reporter were transiently transfected with the NotchΔE construct (4 μg DNA/10^6 cells) using Lipofectamine 2000 (Thermo Fisher, Waltham, MA, USA) in 6-well plates. […] Chemiluminescence was then read on an EnVision plate reader (Perkin Elmer).

T1 sequence (P05067 672-713 limits assumed): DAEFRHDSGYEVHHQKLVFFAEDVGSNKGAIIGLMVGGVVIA

As to “Aβ42: Aβ peptide (AnaSpec) used in the aggregation assay”, the “Increase in aggregates over time (thioflavin T fluorescence)” value with Aβ42 is over 15 fold. The term IC50 denotes the concentration that gives 50% inhibition. Low values mean higher potency, high ones lower potency. Regarding `COc1cc(/C=C2\CCCN([C@@H](C)c3ccc(F)cc3)C2=O)ccc1-n1cnc(C)c1` [E2012], in data set [1], the Lenticular opacity entry is reported as “cause lenticular opacity”. In addition, in the data set on DHCR24 [2], the “Inhibition of DHCR24” value is “inhibit”. For the same molecule, the “Desmosterol induction (change from DMSO)” value at DHCR24 [3] (1 μM) is listed as ~ 60 fold. Moreover, 63 nM corresponded to half-maximal inhibition against DHCR24 [3] (desmosterol accumulation, 2 h) (IC50). Take `COc1nc(/C=C/c2nc3n(n2)CCC[C@H]3c2ccccc2C(F)(F)F)ccc1-n1cnc(C)c1` [E2212]: the DHCR24 off-target activity entry in the data set on DHCR24 [2] is reported as “did not have this off-target activity”. Take `C[C@H](NC(=O)[C@@H](O)c1cc(F)cc(F)c1)C(=O)N[C@@H]1C(=O)N(C)c2ccccc2-c2ccccc21` [LY-411,575, reference compound]: half-maximal inhibition with Notch processing (IC50) was put at 0.9 nM.
